A short description of data set [1]: Cytotoxicity against MDCK cells assessed as decrease in cell viability by MTT assay. Format: cell-based, Canis lupus familiaris. As to conditions: dog.
Data set [2] is described as follows: Equilibrium solubility of the compound in phosphate buffer at pH 7.4 after 1 hr. Format: physicochemical.
A short description of data set [3]: Permeability of the compound assessed as passive diffusion from donor compartment to acceptor compartment after 18 hrs by PAMPA assay. As to conditions: read-out: Peff. Format: physicochemical.
The test system of data set [4] is Influenza B virus. Nature of the data set: Antiviral activity against Influenza B virus B/Lee/40 assessed as reduction in plaque formation after 48 hrs by plaque reduction assay. Format: functional, organism-based. As to conditions: B/Lee/1940, 48 h.
A short description of data set [5]: Permeability of the compound assessed as membrane drug retention after 18 hrs by PAMPA assay. Format: physicochemical. Details: concentration or dose not given beside the values.
The nature of data set [6]: Antiviral activity against Influenza A virus A/Solomon Island/3/06 (H1N1) assessed as reduction in plaque formation after 48 hrs by plaque reduction assay. Format: functional, Influenza A virus (A/Solomon Islands/3/2006(H1N1)).
The nature of data set [7]: Antiviral activity against Influenza A virus A/Wisconsin/67/05 (H3N2) assessed as reduction in plaque formation after 48 hrs by plaque reduction assay. Format: functional, Influenza A virus (A/Wisconsin/67/2005(H3N2)).
The target of data set [8] is PA/PB1 (Influenza A virus (A/Puerto Rico/8/1934(H1N1)), UniProt P03431+P03433).
In another data set the test system is Liver microsome. Briefly: Metabolic stability in human liver microsomes assessed as cytochrome-mediated metabolism after 30 mins by HPLC-MS/MS analysis. As to conditions: 0.5 h. Type of data set: ADME.
The subject of data set [9] is Influenza B virus. Nature of the data set: Antiviral activity against Influenza B virus B/Malaysia/2506/04 assessed as reduction in plaque formation after 48 hrs by plaque reduction assay. Format: functional. As to conditions: B/Malaysia/2506/2004, 48 h.
Data set [10] in a line: Cytotoxicity against human HEK293T cells assessed as decrease in cell viability by MTT assay. Type of data set: cell-based, HEK-293T.
The subject of data set [11] is Influenza A virus. Format: functional, organism-based. As to conditions: A/Puerto Rico/8/1934(H1N1), MDCK, 48 h.
The subject of data set [12] is Influenza B virus. Nature of the data set: Antiviral activity against Influenza B virus B/Bangladesh/333/07 assessed as reduction in plaque formation after 48 hrs by plaque reduction assay. Type of data set: functional, organism-based. As to conditions: B/Bangladesh/333/07, 48 h.
Data set [13] deals with Influenza A virus. Type of data set: functional, organism-based. As to conditions: A/Puerto Rico/8/1934(H1N1), MDCK, 48 h. The source holds these as a separate data set.
Data set [14] deals with Influenza A virus. Type of data set: functional, organism-based. As to conditions: A/Puerto Rico/8/1934(H1N1), HEK-293T, 50 uM.
Data set [15] has as its system Influenza A virus. Format: functional, organism-based. As to conditions: A/Puerto Rico/8/1934(H1N1), HEK-293T, 50 uM. The source holds these as a separate data set.
Data set [16] concerns Influenza A virus. Type of data set: functional, organism-based. As to conditions: A/Puerto Rico/8/1934(H1N1), HEK-293T, 50 uM. This is another data set of the same source.
Data set [17] relates to Influenza A virus. Type of data set: functional, organism-based. As to conditions: A/Puerto Rico/8/1934(H1N1), HEK-293T, 50 uM. The source holds these as a separate data set.

The structures appear in SMILES notation. In brackets after ≈: the same amount, converted by molar mass. Activity calls are given as the source filed them. The rule behind the calls is not given here.

In the case of `Cc1cc(-c2ccccc2)nc2nc(NC(=O)c3ccccc3)nn12`, the CC50 is greater than 250 µM in data set [1] and 196 µM in data set [10]. The same compound displayed a thermodynamic solubility at 1 h in data set [2] of 13 µg/mL (≈ 39.5 µM). In addition, the Papp at 18 h in data set [3] amounted to 5.49 ×10⁻⁶ cm/s. The EC50 with Influenza B virus [4] is 25 µM; in data set [6], 27 µM; in data set [7], 24 µM; in the data set on Influenza B virus [9], 36 µM; in the data set with Influenza A virus [11], 25 µM; with Influenza B virus [12], 34 µM. The EC50 in the data set on Influenza A virus [13] was 25 µM. The Activity in [5] came to 2%. In addition, the IC50 in data set [8] amounted to 26 µM. In addition, the Drug metabolism entry with Liver microsome was “metabolite_notdetected”.

Regarding `Cc1cc(-c2ccccc2)n2nc(C(=O)Nc3sc4c(c3C(N)=O)CCCCC4)nc2n1`, the CC50 in data set [1] and in [10] was greater than 250 µM in each case. The same compound displayed a solubility (thermodynamic) at 1 h in data set [2] of 13 µg/mL (≈ 29.1 µM). The result in the data set on Influenza A virus [14], in the data set with Influenza A virus [16] and in the data set with Influenza A virus [17] was Active. Further, in the data set with Influenza A virus [15], the outcome was inactive. In addition, the Papp at 18 h in data set [3] came out at 0.61 ×10⁻⁶ cm/s. The EC50 in the data set on Influenza B virus [4] was 24 µM; in data set [6] it was 23 µM; in [7] it was 7 µM; with Influenza B virus [9], 17 µM; with Influenza A virus [11], 21 µM; in the data set with Influenza B virus [12], 11 µM. This compound also had an EC50 in the data set on Influenza A virus [13] of 21 µM. The Activity in data set [5] worked out at 45%. The compound also displayed an IC50 in [8] of 1.1 µM. In the data set on Liver microsome, the Drug metabolism entry is reported as “metabolite_notdetected”.

On to `CCCOc1ccc(C(=O)Nc2nc3n(n2)C(c2ccccc2)C=C(C)N3)cc1` (stereo unspecified), for which the CC50 was greater than 230 µM in data set [1] and greater than 250 µM in data set [10]. In [2], the solubility (thermodynamic) at 1 h worked out at 13 µg/mL (≈ 33.4 µM). For the same compound, in data set [3], the Papp at 18 h turned out to be 2.93 ×10⁻⁶ cm/s. For the same compound, the EC50 with Influenza B virus [4] is 51 µM; in [6], 27 µM; in data set [7], 37 µM; with Influenza B virus [9], 32 µM; in the data set on Influenza A virus [11] it was 47 µM; in the data set on Influenza B virus [12], 27 µM. In the data set with Influenza A virus [13], the EC50 was 47 µM. In addition, the Activity in data set [5] came out at 41%. The IC50 in data set [8] stood at 40 µM. Moreover, in the data set on Liver microsome, the Drug metabolism entry is “metabolite_notdetected”.
